From PMC4124873, “Photo-antagonism of the GABAA receptor” (Nature Communications, 2014)
Where “and” joins values, the source holds several entries; their conditions need not be identical. Equal entries are not always repeated. Where two headings read alike, the source gives them in different places.

Legend:
α1β2γ2 GABAA receptor [1] = biological target: T1, α1β2γ2 GABAA receptor (Mus musculus, UniProt P62812+P63137); test: Schild analysis of competitive antagonism in HEK cells
α1β2γ2 GABAA receptor [2] = biological target: T1, α1β2γ2 GABAA receptor; conditions: for irreversible reduction/block of GABA current post-UV: one cycle of UV
[3] = biological target: T2, α1R84Qβ2γ2 GABAA receptor (Mus musculus, UniProt P62812+P63137, R111Q); test: cell-based
[4] = biological target: T3, α1β2γ2 (wt) GABAA receptor (Mus musculus, UniProt P62812+P63137); test: cell-based
[5] = biological target: T4, α1R84Qβ2R207Qγ2 GABAA receptor (Mus musculus, UniProt P62812+P63137, R111Q/R231Q); conditions: α1R84Qβ2R207Qγ2 double mutant
[6] = biological target: α1β2D162+163Nγ2 GABAA receptor (Mus musculus, UniProt P62812+P63137, D186N/D187N); test: cell-based
[7] = biological target: T2, α1R84Qβ2γ2 GABAA receptor; test: cell-based; conditions: HEK293, read-out: maximum GABA current after UV in the presence of GZ-B1, % of control
[8] = biological target: α1β2E155Qγ2 GABAA receptor (Mus musculus, UniProt P62812+P63137, E179Q); test: cell-based
[9] = biological target: T5, α1R119Qβ2γ2 GABAA receptor (Mus musculus, UniProt P62812+P63137, R146Q); conditions: for Max inhibition: α1R119Qβ2γ2; for potency increase compared with wild type: α1R119Qβ2γ2 vs wild type
[10] = biological target: T6, α1β2R207Qγ2 GABAA receptor (Mus musculus, UniProt P62812+P63137, R231Q)
[11] = biological target: T7, α1R84+119Qβ2D162+163Nγ2 GABAA receptor (Mus musculus, UniProt P62812+P63137, D186N/D187N/R111Q/R146Q); test: cell-based
[12] = biological target: T5, α1R119Qβ2γ2 GABAA receptor; test: cell-based; conditions: HEK293, read-out: maximum GABA current after UV in the presence of GZ-B1, % of control
[13] = biological target: T5, α1R119Qβ2γ2 GABAA receptor; test: cell-based
[14] = biological target: T3, α1β2γ2 (wt) GABAA receptor; conditions: for Max inhibition: inhibition of GABA EC50 response, wt
[15] = biological target: T8, α1β2E155Q+R207Qγ2 GABAA receptor (Mus musculus, UniProt P62812+P63137, E179Q/R231Q)
[16] = biological target: T9, α1R119Qβ2R207Qγ2 GABAA receptor (Mus musculus, UniProt P62812+P63137, R146Q/R231Q); test: cell-based
[17] = biological target: T6, α1β2R207Qγ2 GABAA receptor; test: cell-based
[18] = biological target: T8, α1β2E155Q+R207Qγ2 GABAA receptor; test: cell-based
[19] = biological target: T2, α1R84Qβ2γ2 GABAA receptor
[20] = biological target: α1R119Qβ2E155Qγ2 GABAA receptor (Mus musculus, UniProt P62812+P63137, E179Q/R146Q); test: cell-based
[21] = biological target: T10, α1R119Qβ2E155Q+R207Qγ2 GABAA receptor (Mus musculus, UniProt P62812+P63137, E179Q/R146Q/R231Q); test: cell-based
[22] = biological target: α1β2D162N,D163Nγ2 GABAA receptor (Mus musculus, UniProt P62812+P63137, D186N/D187N); test: cell-based; conditions: HEK293, read-out: maximum GABA current after UV in the presence of GZ-B1, % of control
[23] = biological target: T7, α1R84+119Qβ2D162+163Nγ2 GABAA receptor; test: cell-based; conditions: HEK293, read-out: maximum GABA current after UV in the presence of GZ-B1, % of control
[24] = tested on: synaptic GABAA receptors of cerebellar granule cells; test: sIPSCs in cultured cerebellar granule cells after UV photoactivation; conditions: 10 μM GZ-B1, one UV cycle
[25] = biological target: T9, α1R119Qβ2R207Qγ2 GABAA receptor
[26] = biological target: T4, α1R84Qβ2R207Qγ2 GABAA receptor; test: cell-based
α1β2γ2 GABAA receptor [27] = biological target: T1, α1β2γ2 GABAA receptor; test: cell-based; conditions: HEK293, read-out: maximum GABA current after UV in the presence of GZ-B1, % of control
α4β3δ GABAA receptor = biological target: T11, α4β3δ GABAA receptor (Mus musculus, UniProt P63080+Q9D6F4); test: GZ-B1 inhibition of GABA EC50 responses, receptor subtype selectivity in HEK cells; assay type: cell-based, murine; conditions: GABA EC50 response, ANOVA Dunnett
T11 construct: expressed in transfected cells; host or cells: HEK cells
Source text: (§1) […]; pH 7.4 (adjusted with 1 M NaOH).

α3β3γ2 GABAA receptor = biological target: T12, α3β3γ2 GABAA receptor (Mus musculus, UniProt P26049+P63080); test: as above; assay type: cell-based, murine; conditions: α3β3γ2, GABA EC50 response, ANOVA Dunnett
T12 construct: expressed in transfected cells; host or cells: HEK cells
Source text: as §1

[28] = biological target: T10, α1R119Qβ2E155Q+R207Qγ2 GABAA receptor
[29] = biological target: T3, α1β2γ2 (wt) GABAA receptor; design: expressed in transfected cells; host or cells: HEK cells; conditions: α1β2γ2, GABA EC50 response; cited from earlier work
[30] = IC50, inhibition of GABA EC50 response, α1R119Qβ2γ2
[31] = IC50, α1R119Qβ2γ2, as printed in text
[32] = IC50, inhibition of GABA EC50 response, α1β2R207Qγ2
[33] = 10 μM GABA, 10 μM antagonist, one cycle of 10 UV flashes, 3–5 min wash

With `[N-]=[N+]=Nc1ccc(COc2ccc(-c3ccc(=N)n(CCCC(=O)O)n3)cc2)cc1` [GZ-A1] the Kb (α1β2γ2 GABAA receptor [1]) was 44 nM, the “GABA-induced current post-UV, normalized to control” value (α1β2γ2 GABAA receptor [2]) was 71.3±6.8% and the “irreversible reduction/block of GABA current post-UV” value (from here on “irreversible reduction/block”) (α1β2γ2 GABAA receptor [2]; 10 μM antagonist) was ~ 30%.

Work on `N=c1ccc(-c2ccc(OCc3ccc(C(=O)c4ccccc4)cc3)cc2)nn1CCCC(=O)O` [GZ-B1] yielded an IC50 ([3]; IC50, inhibition of GABA EC50 response) of 4220 nM, an IC50 ([3]; pIC50, inhibition of GABA EC50 response) of 4230 nM and an IC50 [4] of 155 nM. The “reduction (loss) of GZ-B1 potency” value [5] was 1,000 fold and > 1,000 fold, the IC50 [6] was 13500 nM and the remaining activity at 100 µM [7] was 84 ± 4.9%. It also gave a Kb (α1β2γ2 GABAA receptor [1]) of 153 nM, an IC50 [8] greater than 100000 nM and a Max inhibition [9] of 100%. For the same compound, the “potency increase compared with wild type” value [9] was ~ 2 fold, the Max inhibition [10] was 83 ± 3% and the IC50 [11] was 258000 nM. It also gave a remaining activity at 10 µM [12] of 73 ± 2.6%, an IC50 [13, 30] of 71.5 nM and an IC50 [13, 31] of 72 nM. The Max inhibition [14] was 100%, the Max inhibition [15] was 100% and the IC50 [16] was 418 nM. For the same compound, the IC50 [17, 32] was 487 nM, the IC50 ([17]; IC50, α1β2R207Qγ2, as printed in text) was 487 nM and the “GABA-induced current post-UV, normalized to control” value (α1β2γ2 GABAA receptor [2]; [33]) was 50.8±1.8%. The “irreversible reduction/block” value (α1β2γ2 GABAA receptor [2]; 10 μM antagonist) was ~ 50%, the IC50 [18] was 470 nM and the Max inhibition [19] was 100%. The IC50 [20] was greater than 100000 nM, the IC50 [21] was 426 nM and the remaining activity at 100 µM [22] was 71 ± 2.6%. For the same compound, the remaining activity at 100 µM [23] was 97 ± 3.4%, the “reduction in synaptic current (sIPSC) amplitude” value [24] was no more than 90% and the Max inhibition [25] was 75 ± 2%. The IC50 [26] was 182000 nM, the remaining activity at 10 µM (α1β2γ2 GABAA receptor [27]) was 62 ± 4.2% and the “GZ-B1 potency (IC50) compared with α1β3γ2” value (α4β3δ GABAA receptor) was “significantly lower potencies”. The “GZ-B1 potency (IC50) compared with α1β3γ2” value (α3β3γ2 GABAA receptor) was “significantly lower potencies” and the Max inhibition [28] was 72 ± 4%.

In the case of `N=c1ccc(-c2ccc(C(=O)c3ccccc3)cc2)nn1CCCC(=O)O` [GZ-B2], the Kb (α1β2γ2 GABAA receptor [1]) is reported as 318 nM, the “relative potency compared with gabazine” value ([14]; α1β2γ2, GABA EC50 response) is reported as “equipotent” and the “GABA-induced current post-UV, normalized to control” value (α1β2γ2 GABAA receptor [2]; [33]) is reported as 98.3±4.2%.

In the case of `N=c1ccc(-c2ccc(OCc3ccc(C4(C(F)(F)F)N=N4)cc3)cc2)nn1CCCC(=O)O` [GZ-D1], the Kb (α1β2γ2 GABAA receptor [1]) is reported as 132 nM, the “GABA-induced current post-UV, normalized to control” value (α1β2γ2 GABAA receptor [2]; [33]) is reported as 79.0±4.5% and the “irreversible reduction/block” value (α1β2γ2 GABAA receptor [2]; 10 μM antagonist) is reported as ~ 20%.

In the case of `N=c1ccc(-c2ccc(OCc3ccccc3)cc2)nn1CCCC(=O)O` [GZ-i1], the Kb (α1β2γ2 GABAA receptor [1]) is given as 13 nM, the “increase in affinity (Ki) over gabazine” value (α1β2γ2 GABAA receptor [1]; Schild analysis) is given as 20 fold and the “increase in potency over gabazine” value [29] is given as “more than 30 fold”.

With `COc1ccc(-c2ccc(=N)n(CCCC(=O)O)n2)cc1` [gabazine, reference compound] the IC50 [4] was 349 nM, the Kb (α1β2γ2 GABAA receptor [1]) was 300 nM and the IC50 [8] was greater than 100000 nM. The Max inhibition [9] was 100%, the “potency increase compared with wild type” value [9] was ~ 2 fold and the Max inhibition [10] was 100%. For the same compound, the IC50 [13, 30] was 188 nM, the IC50 [13, 31] was 188 nM and the Max inhibition [14] was 100%. It also gave a Max inhibition [15] of 100%, an IC50 [16] of 3750 nM and an IC50 [17, 32] of 1710 nM. For the same compound, the “GABA-induced current post-UV, normalized to control” value (α1β2γ2 GABAA receptor [2]; [33]) was 101.6±3.3%, the IC50 [18] was 1380 nM and the IC50 [20] was greater than 100000 nM. The IC50 [21] was 2260 nM, the Max inhibition [25] was 100% and the Max inhibition [28] was 94 ± 1%.
